In patent publication US20230131903A1, “PESTICIDALLY ACTIVE FUSED BICYCLIC HETEROAROMATIC COMPOUNDS” (SYNGENTA CROP PROTECTION AG, priority 2020, published 2023) one finds percent control (mortality or growth inhibition) and percent control (mortality, anti-feedant effect or growth inhibition) data, which are given here for ten compounds.

Type in all cases: in vivo
Test [1] relates to Diabrotica Balteata (Corn Root Worm). Put plainly: Example B1: Diabrotica balteata (corn root worm), maize sprouts sprayed, L2 larvae. Conditions: 96 h, application rate of 200 ppm, 4 days after infestation, in comparison to untreated samples, read-out: control in at least one of the two categories (mortality or growth inhibition). The procedure: Example B1: Diabrotica Balteata (Corn Root Worm)
Maize sprouts placed onto an agar layer in 24-well microtiter plates were treated with aqueous test solutions prepared from 10′000 ppm DMSO stock solutions by spraying. After drying, the plates were infested with L2 larvae (6 to 10 per well). The samples were assessed for mortality and growth inhibition in comparison to untreated samples 4 days after infestation.
(§1) The following compounds gave an effect of at least 80% control in at least one of the two categories (mortality or growth inhibition) at an application rate of 200 ppm

The test system of test [2] is Chilo suppressalis (Striped Rice Stemborer). Briefly: Example B3: Chilo suppressalis (striped rice stemborer), artificial diet, L2 larvae. The settings on record: 144 h, application rate of 200 ppm, 6 days after infestation, in comparison to untreated samples, read-out: control in at least one of the three categories (mortality, anti-feedant effect, or growth inhibition). The procedure:
Example B3: Chilo suppressalis (Striped Rice Stemborer)
24-well microtiter plates with artificial diet were treated with aqueous test solutions prepared from 10′000 ppm DMSO stock solutions by pipetting. After drying, the plates were infested with L2 larvae (6-8 per well). The samples were assessed for mortality, anti-feeding effect, and growth inhibition in comparison to untreated samples 6 days after infestation. Control of Chilo suppressalis by a test sample is given when at least one of the categories mortality, anti-feedant effect, and growth inhibition is higher than the untreated sample.

In test [3] the test system is Euschistus heros (Neotropical Brown Stink Bug). Put plainly: Example B2: Euschistus heros (neotropical brown stink bug), soybean leaves sprayed, N2 nymphs. The settings on record: 120 h, application rate of 200 ppm, 5 days after infestation, in comparison to untreated samples, read-out: control in at least one of the two categories (mortality or growth inhibition). The procedure:
Example B2: Euschistus heros (Neotropical Brown Stink Bug)
Soybean leaves on agar in 24-well microtiter plates were sprayed with aqueous test solutions prepared from 10′000 ppm DMSO stock solutions. After drying the leaves were infested with N2 nymphs. The samples were assessed for mortality and growth inhibition in comparison to untreated samples 5 days after infestation.
as §1

The test system of test [4] is Plutella xylostella (Diamond Back Moth). Briefly: Example B4: Plutella xylostella (diamond back moth), artificial diet, eggs. Conditions: 192 h, application rate of 200 ppm, 8 days after infestation, in comparison to untreated samples, read-out: control in at least one of the two categories (mortality or growth inhibition). The procedure:
Example B4: Plutella xylostella (Diamond Back Moth)
24-well microtiter plates with artificial diet were treated with aqueous test solutions prepared from 10′000 ppm DMSO stock solutions by pipetting. After drying, Plutella eggs were pipetted through a plastic stencil onto a gel blotting paper and the plate was closed with it. The samples were assessed for mortality and growth inhibition in comparison to untreated samples 8 days after infestation.
as §1

The test system of test [5] is Spodoptera littoralis (Egyptian Cotton Leaf Worm). Briefly: Example B5: Spodoptera littoralis (Egyptian cotton leaf worm), cotton leaf discs sprayed, L1 larvae. The settings on record: foliar, 72 h, application rate of 200 ppm, 3 days after infestation, in comparison to untreated samples, read-out: control in at least one of the three categories (mortality, anti-feedant effect, or growth inhibition). The protocol:
Example B5: Spodoptera littoralis (Egyptian Cotton Leaf Worm)
Cotton leaf discs were placed onto agar in 24-well microtiter plates and sprayed with aqueous test solutions prepared from 10′000 ppm DMSO stock solutions. After drying the leaf discs were infested with five L1 larvae. The samples were assessed for mortality, anti-feeding effect, and growth inhibition in comparison to untreated samples 3 days after infestation. Control of Spodoptera littoralis by a test sample is given when at least one of the categories mortality, anti-feedant effect, and growth inhibition is higher than the untreated sample.

SMILES strings stand for the structures.

For `CC(Nc1nc(=O)[nH]c2c(Br)cc(C(F)(F)F)cc12)c1ncnn1-c1ncccn1` (stereo not shown) [P2], the percent control (mortality or growth inhibition) at 200 ppm in test [1], in test [3] and in test [4] was no less than 80% each time. The percent control (mortality, anti-feedant effect or growth inhibition) at 200 ppm in test [2] is no less than 80%.
Turning to `CC(Nc1nc(=O)n(C)c2c(C(F)(F)F)cc(Br)cc12)c1ncnn1-c1ncccn1` (stereo not shown) [P5, 6-bromo-1-methyl-4-[1-(2-pyrimidin-2-yl-1,2,4-triazol-3-yl)ethylamino]-8-(trifluoromethyl)quinazolin-2-one], the percent control (mortality, anti-feedant effect or growth inhibition) at 200 ppm in test [5] and in test [2] was no less than 80% in each case. Besides, the percent control (mortality or growth inhibition) at 200 ppm in test [1], in test [3] and in test [4] was no less than 80% in each case.
On to `CC(Nc1nc(=O)n(C)c2c(Cl)cc(C(F)(F)F)cc12)c1ncnn1-c1ncccn1` (stereo not shown) [P7, 8-chloro-1-methyl-4-[1-(2-pyrimidin-2-yl-1,2,4-triazol-3-yl)ethylamino]-6-(trifluoromethyl) quinazolin-2-one], for which the percent control (mortality, anti-feedant effect or growth inhibition) at 200 ppm in test [2] is no less than 80%. Also, the percent control (mortality or growth inhibition) at 200 ppm in test [3] and in test [4] was no less than 80% in each case.
As to `CC(c1ncnn1-c1ncccn1)N(CC1CC1)c1nc(=O)[nH]c2c(Cl)cc(C(F)(F)F)cc12` (stereo not shown) [P1, 8-chloro-4-[cyclopropylmethyl-[1-(2-pyrimidin-2-yl-1,2,4-triazol-3-yl)ethyl]amino]-6-(trifluoromethyl)-1H-quinazolin-2-one], the percent control (mortality or growth inhibition) at 200 ppm in test [1], in test [3] and in test [4] was no less than 80% in each case.
Turning to `CC(Nc1cc(=O)[nH]c2c(Cl)cc(C(F)(F)F)cc12)c1nccnc1-c1ncccn1` (stereo not shown) [P8, 8-chloro-4-[1-(3-pyrimidin-2-ylpyrazin-2-yl)ethylamino]-6-(trifluoromethyl)-1H-quinolin-2-one], the percent control (mortality or growth inhibition) at 200 ppm in test [1] and in test [4] was no less than 80% in each case.
As for `CC(c1ncnn1-c1ncccn1)N(CC1CC1)c1nc(=O)[nH]c2c(Br)cc(C(F)(F)F)cc12` (stereo not shown) [P3, 8-bromo-4-[cyclopropylmethyl-[1-(2-pyrimidin-2-yl-1,2,4-triazol-3-yl)ethyl]amino]-6-(trifluoromethyl)-1H-quinazolin-2-one], the percent control (mortality or growth inhibition) at 200 ppm in test [1], in test [3] and in test [4] was no less than 80% throughout.
Take `CC(c1ncnn1-c1ncccn1)N(C)c1nc(=O)n(C)c2c(C(F)(F)F)cc(Br)cc12` (stereo not shown) [P6, 6-bromo-1-methyl-4-[methyl-[1-(2-pyrimidin-2-yl-1,2,4-triazol-3-yl)ethyl]amino]-8-E (trifluoromethyl)quinazolin-2-one]: the percent control (mortality or growth inhibition) at 200 ppm in test [1] and in test [3] was no less than 80% each time.
Take `CC(c1ncnn1-c1ncccn1)N(C)c1nc(=O)n(C)c2c(Cl)cc(C(F)(F)F)cc12` (stereo not shown) [P10, 8-chloro-1-methyl-4-[methyl-[1-(2-pyrimidin-2-yl-1,2,4-triazol-3-yl)ethyl]amino]-6-(trifluoromethyl) quinazolin-2-one]: in test [3], the percent control (mortality or growth inhibition) at 200 ppm was no less than 80%.
For `CC(Nc1nc(=O)[nH]c2c(Cl)cc(C(F)(F)F)cc12)c1ncnn1-c1ncccn1` (stereo not shown) [P4, 8-chloro-4-[1-(2-pyrimidin-2-yl-1,2,4-triazol-3-yl)ethylamino]-6-(trifluoromethyl)-1H-quinazolin-2-one], the percent control (mortality, anti-feedant effect or growth inhibition) at 200 ppm in test [5] and in test [2] was no less than 80% each time. In addition, the percent control (mortality or growth inhibition) at 200 ppm in test [3] and in test [4] was no less than 80% throughout.
For the compound `CC(c1ncnn1-c1ncccn1)N(C)c1nc(=O)n(CC(F)(F)F)c2ccc(C(F)(F)F)cc12` (stereo not shown) [P12, 4-[methyl-[1-(2-pyrimidin-2-yl-1,2,4-triazol-3-yl)ethyl]amino]-1-(2,2,2-trifluoroethyl)-6-(trifluoromethyl) quinazolin-2-one], the percent control (mortality or growth inhibition) at 200 ppm in test [3] was no less than 80%.
